According to article PMC6240685, “Strong Inhibitory Effect, Low Cytotoxicity and High Plasma Stability of Steroidal Inhibitors of N-Methyl-D-Aspartate Receptors With C-3 Amide Structural Motif” (Frontiers in Pharmacology, 2018):
Counter-ions that a name gives are not always drawn. Like-named read-outs stand apart in the source and are kept apart here.

Experiments:
[1] = system: HepG2 cells; assay: Mitotoxicity, XTT viability in glucose vs galactose medium; conditions: for IC50: Homo sapiens, HepG2, 24 h; for Glu/Gal index (fold change): 24 h, HepG2, index higher than 3 indicates potential mitochondrial toxicity
Procedure: (§1) (A) Hepatotoxicity provoked by compound 4 was assessed after 72 h incubation of HepG2 cells in low glucose medium (5 mM) in the presence of compound 4 (0.25–100 μM). (B) Mitochondrial toxicity was determined after 24 h incubation of HepG2 cells in either high glucose medium (25 mM) or galactose medium (10 mM) in the presence of compound 4 (2.5–150 μM). Cell viabilities were recorded in triplicates in three independent experiments and expressed as percentage of vehicle control ± SD and IC50 values were determined by GraphPad Prism software using following equation: Y = Bottom + (Top–Bottom)/(1 + 10ˆ((LogIC50-X)^∗HillSlope)), where IC50 is the concentration of compound 4 that inhibits cell viability half way between Bottom and Top plateaus, X is compound 4 concentration and HillSlope describes the steepness of the family of curves. […] (C) Concentration-dependent effect on ROS level. HepG2 cells were treated with compound 4 (0.25–100 μM) for 72 h, and then the intracellular level of total ROS in relative fluorescence units (RFU) was detected. The data are presented as the mean ± SD for at least three independent experiments and each experiment was carried out in triplicate. Final concentration of DMSO in samples was 1%. […] Single asterisks (^∗) indicate a significant difference (P < 0.05) compared to 1% DMSO control (one-way ANOVA with Dunnett’s post-test).
(§2) HepG2 cells (ATCC®, United Kingdom) were grown in complete Minimal Essential Medium (EMEM) (5.5 mM glucose) medium, supplemented with 10% (v/v) fetal calf serum, 200 μg/mL of streptomycin, 200 U/mL of penicillin G and 4 mM glutamine. They were cultured under a humidified atmosphere containing 5% CO2 at 37°C.
(§3) The cytotoxicity of the tested compounds was assessed with use of XTT cell proliferation kit II (Roche Diagnostics GmbH, Mannheim, Germany) according to the manufacturer’s instructions. Briefly HepG2 cells were seeded in a 96-well plate at a density of 22,000 cells per well. After 24 h, the tested neurosteroids in a concentration range from 0.5 to 200 μM were added to the culture media and incubated for 72 h before the XTT dye was added. Mitochondrial toxicity was assessed in HepG2 cells using glucose and galactose conditioned media and XTT assay as a read out for cell viability. In brief, cells were seeded onto 96 well, clear bottom tissue culture plates at a density of 22,000 cells/well and left overnight to attach. Six hours prior to the neurosteroids treatment the media was replaced with 100 μL DMEM media containing either glucose (25 mM glucose; 1 mM pyruvate; 2 mM glutamine, 10% FBS) or galactose (10 mM galactose, 1 mM pyruvate, 6 mM glutamine, 10% FBS). After that, the tested neurosteroids in a concentration range from 0.5 to 200 μM were added in the fresh appropriate assay medium (glucose or galactose) and incubated for 24 h before the XTT dye was added. The XTT absorbance was recorded at 495 nm after 1 h incubation with the dye. Compounds were dissolved in DMSO to produce the stock solutions at the concentration of 10 mM, with exception of PAG, 1, 6 (5 mM), and 11 (2.5 mM). Results were expressed as percentages of change in viability compared to appropriate DMSO control. IC50 values were determined by GraphPad Prism version 5.00 for Windows (GraphPad Software, La Jolla, CA, United States). All experiments were done in triplicates in three independent experiments to check the reproducibility.

[2] = system: HepG2 cells; assay: ROS induction (CM-H2DCFDA); type: cell-based
Procedure: as §1
The effect of neurosteroids on oxidative stress was determined using general oxidative stress indicator CM-H2DCFDA (Thermo Fisher Scientific, Waltham, MA, United States) according to the manufacturer’s instructions. Briefly HepG2 cells were seeded in a 96-well plate at a density of 13,500 cells per well. After 24 h, the tested neurosteroids were added to the culture media and incubated for 72 h. Subsequently, cells were washed with HBSS, treated with 100 μL of 1 μM CM-H2DCF-DA solution in HBSS and incubated for 1 h in the dark at 37°C. Finally, cells were washed three times with HBSS and the fluorescence was measured using 495 excitation and 527 emission in fluorescence microplate reader (Cytation 3, Winooski, VT, United States). IC50 index values were determined by GraphPad Prism version 5.00 for Windows (GraphPad Software, La Jolla, CA, United States).

[3] = system: HepG2 cells; assay: Hepatotoxicity, XTT viability after 72 h; type: cell-based; conditions: Homo sapiens, read-out: Hepatotoxicity IC50, 5.5 mM glucose
Procedure: Then, the cell viability (XTT assay) and reactive oxygen species (ROS) induction were evaluated.
as §1, §2, §3

[4] = Plasma stability, rat plasma; type: in vitro ADME
[5] = target: T1, GluN1/GluN2B receptors (Rattus norvegicus, UniProt P35439+Q00960); assay: Patch-clamp inhibition of glutamate responses of GluN1/GluN2B receptors in transfected HEK293 cells; type: cell-based
T1 construct: expressed in transfected cells; host or cells: HEK293
T1 sequence (Q00960 27-1482, other chains not shown): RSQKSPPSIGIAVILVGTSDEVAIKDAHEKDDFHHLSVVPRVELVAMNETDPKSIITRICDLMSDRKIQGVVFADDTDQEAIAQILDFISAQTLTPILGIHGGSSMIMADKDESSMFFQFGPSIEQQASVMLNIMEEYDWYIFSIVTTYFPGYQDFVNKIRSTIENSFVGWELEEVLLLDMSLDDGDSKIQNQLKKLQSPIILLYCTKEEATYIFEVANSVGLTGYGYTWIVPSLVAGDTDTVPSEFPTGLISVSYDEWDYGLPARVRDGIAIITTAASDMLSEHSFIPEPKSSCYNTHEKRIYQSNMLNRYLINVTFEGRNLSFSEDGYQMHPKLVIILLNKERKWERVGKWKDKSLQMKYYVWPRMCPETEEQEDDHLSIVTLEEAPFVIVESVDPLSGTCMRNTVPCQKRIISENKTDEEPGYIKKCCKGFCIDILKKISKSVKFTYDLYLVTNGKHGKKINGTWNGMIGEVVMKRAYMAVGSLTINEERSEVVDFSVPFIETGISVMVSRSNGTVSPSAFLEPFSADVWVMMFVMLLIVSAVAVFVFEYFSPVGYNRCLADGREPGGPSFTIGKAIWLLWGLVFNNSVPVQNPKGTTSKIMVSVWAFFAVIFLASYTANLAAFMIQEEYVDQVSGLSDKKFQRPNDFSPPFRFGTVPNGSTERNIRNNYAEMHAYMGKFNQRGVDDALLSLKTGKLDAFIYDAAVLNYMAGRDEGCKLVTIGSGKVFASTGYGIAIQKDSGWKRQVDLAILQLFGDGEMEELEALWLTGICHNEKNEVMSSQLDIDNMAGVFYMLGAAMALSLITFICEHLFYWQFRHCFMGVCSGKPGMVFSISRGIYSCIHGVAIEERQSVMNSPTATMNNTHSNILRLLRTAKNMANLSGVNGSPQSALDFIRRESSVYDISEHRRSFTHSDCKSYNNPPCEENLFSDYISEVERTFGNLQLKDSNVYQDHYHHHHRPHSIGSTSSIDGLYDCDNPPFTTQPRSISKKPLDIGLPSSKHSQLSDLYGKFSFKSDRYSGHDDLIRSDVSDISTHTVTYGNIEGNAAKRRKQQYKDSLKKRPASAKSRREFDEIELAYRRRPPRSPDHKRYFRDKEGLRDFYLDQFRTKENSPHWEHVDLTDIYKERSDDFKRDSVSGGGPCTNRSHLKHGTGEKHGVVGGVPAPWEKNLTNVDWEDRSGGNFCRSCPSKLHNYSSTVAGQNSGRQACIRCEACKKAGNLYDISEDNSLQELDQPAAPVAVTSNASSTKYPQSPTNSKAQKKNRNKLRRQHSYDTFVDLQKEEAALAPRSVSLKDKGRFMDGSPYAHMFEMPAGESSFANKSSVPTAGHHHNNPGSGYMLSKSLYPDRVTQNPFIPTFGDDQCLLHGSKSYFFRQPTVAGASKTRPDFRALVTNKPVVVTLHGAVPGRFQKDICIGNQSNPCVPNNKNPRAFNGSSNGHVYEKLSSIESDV

[6] = Plasma stability, human plasma; type: in vitro ADME
Procedure: Then, 37.8 μL of stock solution was added to 1400 μL of human plasma, maintained at 37°C. Aliquots (50 μL) withdrawn at 0, 1, 4, 8, and 24 h were analyzed by HPLC. […] The supernatant was transferred to an autosampler vial and 1 μL was injected onto LC-MS system. The samples were analyzed with an Agilent 1260 HPLC (Agilent Technologies) coupled to ESI-TOF Agilent 6530 (Agilent Technologies) with Agilent Jet Stream Technology. Samples were separated on a Waters ACQUITY UPLC CSH Phenyl-Hexyl (100 × 2.1, 130 Å, 1.7 μm) at a flow rate 0.3 ml/min. […] The mass spectrometry instrument was operated in a negative ion mode with a voltage of +3.00 kV applied to the capillary. The temperature, the flow rate of the nitrogen drying gas, the pressure of the nitrogen nebulizing gas, and the flow rate of the sheath gas were set at 325°C, 10 l/min, 40 psi, 390°C, and 11 l/min, respectively. Results are represented as a percentage of a compound remaining in spiked human plasma.

[7] = parameters: method as in Rambousek et al., 2011; conditions: after bilateral NMDA-induced lesions to the hippocampus; ref Rambousek et al., 2011; cited from earlier work
[8] = parameters: method as in Holubova et al., 2014; conditions: ref Holubova et al., 2014; cited from earlier work
[9] = parameters: method as in Kleteckova et al., 2014; conditions: induced by endothelin-1, immature rats; ref Kleteckova et al., 2014; cited from earlier work
[10] = parameters: method as in Rambousek et al., 2011; conditions: ref Rambousek et al., 2011, cited from earlier work
[11] = target: T2, GluN1/GluN2A receptors (Rattus norvegicus, UniProt P35439+Q00959); parameters: method as in Petrovic et al., 2005; conditions: ref Petrovic et al., 2005; cited from earlier work
T2 construct: expressed in transfected cells; host or cells: HEK293
T2 sequence (Q00959 23-1464, other chains not shown): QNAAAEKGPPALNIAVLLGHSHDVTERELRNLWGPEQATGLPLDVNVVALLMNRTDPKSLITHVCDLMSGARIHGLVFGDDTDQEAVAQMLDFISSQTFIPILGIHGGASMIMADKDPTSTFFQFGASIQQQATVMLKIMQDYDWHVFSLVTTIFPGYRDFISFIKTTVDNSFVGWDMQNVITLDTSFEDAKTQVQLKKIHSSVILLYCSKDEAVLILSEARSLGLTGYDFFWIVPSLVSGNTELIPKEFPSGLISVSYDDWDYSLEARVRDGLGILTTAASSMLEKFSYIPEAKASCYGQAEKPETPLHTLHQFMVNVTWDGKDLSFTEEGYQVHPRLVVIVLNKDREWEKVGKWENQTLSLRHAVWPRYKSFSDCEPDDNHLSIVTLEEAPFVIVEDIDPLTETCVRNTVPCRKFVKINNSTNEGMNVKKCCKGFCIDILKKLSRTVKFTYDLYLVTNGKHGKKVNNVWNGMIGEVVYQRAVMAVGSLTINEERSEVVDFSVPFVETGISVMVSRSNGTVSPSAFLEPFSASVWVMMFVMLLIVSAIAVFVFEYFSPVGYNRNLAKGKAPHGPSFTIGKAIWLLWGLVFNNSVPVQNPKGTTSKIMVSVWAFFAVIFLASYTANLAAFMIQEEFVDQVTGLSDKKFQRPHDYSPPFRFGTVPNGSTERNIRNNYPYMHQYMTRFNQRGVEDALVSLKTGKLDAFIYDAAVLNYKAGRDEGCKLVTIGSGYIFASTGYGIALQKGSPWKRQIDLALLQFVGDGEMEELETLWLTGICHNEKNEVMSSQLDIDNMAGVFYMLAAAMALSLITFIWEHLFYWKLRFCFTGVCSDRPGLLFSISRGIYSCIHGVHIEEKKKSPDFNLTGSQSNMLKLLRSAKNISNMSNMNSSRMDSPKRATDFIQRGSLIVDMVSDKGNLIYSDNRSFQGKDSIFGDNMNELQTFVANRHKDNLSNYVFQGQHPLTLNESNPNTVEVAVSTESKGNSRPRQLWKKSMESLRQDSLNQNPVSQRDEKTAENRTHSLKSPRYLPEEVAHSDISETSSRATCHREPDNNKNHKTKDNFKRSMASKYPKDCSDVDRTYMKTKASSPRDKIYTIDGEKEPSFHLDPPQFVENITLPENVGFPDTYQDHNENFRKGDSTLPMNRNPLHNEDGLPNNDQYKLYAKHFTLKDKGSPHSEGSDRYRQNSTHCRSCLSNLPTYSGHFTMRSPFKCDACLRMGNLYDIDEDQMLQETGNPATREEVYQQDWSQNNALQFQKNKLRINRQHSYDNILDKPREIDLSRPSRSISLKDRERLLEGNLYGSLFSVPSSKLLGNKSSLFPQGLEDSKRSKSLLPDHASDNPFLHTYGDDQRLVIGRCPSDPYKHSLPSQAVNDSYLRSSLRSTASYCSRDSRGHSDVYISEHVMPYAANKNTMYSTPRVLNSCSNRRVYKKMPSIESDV

[12] = target: T1, GluN1/GluN2B receptors; parameters: method as in Petrovic et al., 2005; conditions: ref Petrovic et al., 2005; cited from earlier work
[13] = target: T3, GluN1/GluN2C receptors (Rattus norvegicus, UniProt P35439+Q00961); parameters: method as in Petrovic et al., 2005; conditions: ref Petrovic et al., 2005; cited from earlier work
T3 construct: expressed in transfected cells; host or cells: HEK293
T3 sequence (Q00961 20-1237, other chains not shown): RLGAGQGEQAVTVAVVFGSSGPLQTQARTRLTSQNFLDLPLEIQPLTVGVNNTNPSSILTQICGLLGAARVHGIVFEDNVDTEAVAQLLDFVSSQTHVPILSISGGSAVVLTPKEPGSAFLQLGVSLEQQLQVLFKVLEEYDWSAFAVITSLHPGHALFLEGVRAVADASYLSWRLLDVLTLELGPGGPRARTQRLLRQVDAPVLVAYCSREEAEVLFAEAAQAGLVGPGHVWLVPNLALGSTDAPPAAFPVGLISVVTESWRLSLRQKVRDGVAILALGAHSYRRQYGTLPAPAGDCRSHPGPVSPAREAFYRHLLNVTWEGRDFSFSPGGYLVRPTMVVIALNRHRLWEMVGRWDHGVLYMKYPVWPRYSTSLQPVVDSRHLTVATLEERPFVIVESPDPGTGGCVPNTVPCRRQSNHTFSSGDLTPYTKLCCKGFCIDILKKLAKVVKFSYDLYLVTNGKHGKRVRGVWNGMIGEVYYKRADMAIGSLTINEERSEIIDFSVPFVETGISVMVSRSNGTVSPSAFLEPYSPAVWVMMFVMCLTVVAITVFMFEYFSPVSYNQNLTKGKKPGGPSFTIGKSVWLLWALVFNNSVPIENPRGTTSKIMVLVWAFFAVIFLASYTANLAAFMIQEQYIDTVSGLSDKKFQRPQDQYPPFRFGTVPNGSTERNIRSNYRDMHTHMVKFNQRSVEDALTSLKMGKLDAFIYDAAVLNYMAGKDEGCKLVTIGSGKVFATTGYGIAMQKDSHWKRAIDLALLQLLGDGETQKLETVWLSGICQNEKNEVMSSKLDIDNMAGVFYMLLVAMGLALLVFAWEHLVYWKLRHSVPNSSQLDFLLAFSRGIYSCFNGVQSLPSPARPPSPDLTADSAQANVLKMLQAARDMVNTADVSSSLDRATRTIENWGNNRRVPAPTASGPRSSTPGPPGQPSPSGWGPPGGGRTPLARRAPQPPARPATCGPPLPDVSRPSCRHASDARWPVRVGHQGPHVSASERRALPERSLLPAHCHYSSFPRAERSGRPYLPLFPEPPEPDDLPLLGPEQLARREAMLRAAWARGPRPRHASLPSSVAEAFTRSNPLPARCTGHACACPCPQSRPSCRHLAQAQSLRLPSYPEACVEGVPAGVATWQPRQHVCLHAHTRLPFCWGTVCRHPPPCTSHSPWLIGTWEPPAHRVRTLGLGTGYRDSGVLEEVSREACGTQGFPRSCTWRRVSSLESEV

[14] = target: T4, GluN1/GluN2D receptors (Rattus norvegicus, UniProt P35439+Q62645); parameters: method as in Petrovic et al., 2005; conditions: ref Petrovic et al., 2005; cited from earlier work
T4 construct: expressed in transfected cells; host or cells: HEK293

[15] = read-out: Mitotoxicity IC50, 10 mM galactose
[16] = read-out: Mitotoxicity IC50, 25 mM glucose
[17] = Homo sapiens, HepG2, 72 h; read-out: ROS induction EC50
[18] = as repeated in Table 2, read-out: IC50
[19] = current responses to glutamate, HEK293, IC50 from single steroid dose, Hill coefficient fixed at 1.2, read-out: IC50 ± SD
[20] = Homo sapiens, HepG2, 72 h, read-out: ROS induction EC50

Compound	melting point [°C]	IC50 [1, 15] [µM]	IC50 [1, 16] [µM]	EC50 [2, 17] [µM]	IC50 ([3]; 72 h, HepG2, 5.5 mM glucose) [µM]	remaining at 8 h, 42.1 μg/mL ([4]; rat, plasma) [%]	ΔGexp [5] [kcal/mol]	IC50 [5, 18] [µM]	IC50 [5, 19] [µM]	remaining at 8 h, 42.1 μg/mL ([6]; human, plasma) [%]	Glu/Gal index (fold change) [1]	EC50 [2, 20] [µM]	IC50 ([3]; HepG2, 72 h) [µM]	IC50 [5] [µM]	further results
C[C@@]12CCC[C@H]1[C@@H]1CC[C@@H]3C[C@H](NC(=O)C[C@H](N)C(=O)O)CC[C@]3(C)[C@H]1CC2 [Compound 10, (S)-2-amino-4-(((3R,5R,8S,9S,10S,13S,14S)-10,13-dimethylhexadecahydro-1H-cyclopenta[a]phenanthren-3-yl)amino)-4-oxobutanoic acid]	188 to 190	> 200	> 200	> 200	> 200	100	-7.27	4.9	4.9 ± 1.7	100					
CC(C)(C)OC(=O)N[C@H](CCC(=O)N[C@@H]1CC[C@@]2(C)[C@H](CC[C@H]3[C@@H]4CCC[C@@]4(C)CC[C@@H]32)C1)C(=O)O [Compound 11, (R)-2-((tert-butoxycarbonyl)amino)-5-(((3R,5R,8S,9S,10S,13S,14S)-10,13-dimethylhexadecahydro-1H-cyclopenta[a]phenanthren-3-yl)amino)-5-oxopentanoic acid]	125 to 128	193 ± 17	193 ± 13	103 ± 8	91 ± 5	100	-7.49	3.4	3.4 ± 0.1	100	1				
CC(=O)C1CCC2C3CCC4CC(OC(=O)C(N)CCC(=O)O)CCC4(C)C3CCC12C (centres unmarked) [PAG, pregnanolone glutamate, reference compound]		58 ± 7	115 ± 13								1.97	80 ± 11	62 ± 9	51.7 ± 8.6	behavioral performance in active allothetic place avoidance tasks (AAPA) [7]: improved behavioral performance; neuronal damage in the dentate gyrus and subiculum [7]: significantly ameliorated neuronal damage; behaviour in elevated plus maze (EPM) and forced swimming models [8]: anxiolytic-like and antidepressant-like properties; remaining at 8 h, 42.1 μg/mL ([4]; rat plasma, 8 h, 37°C, read-out: Plasma stability (% remaining after 8 h), Rat): 82%; effect in focal cerebral ischemia model [9]: neuroprotective effect; remaining at 8 h, 42.1 μg/mL ([6]; human plasma, 8 h, 37°C, read-out: Plasma stability (% remaining after 8 h), Human): 94%; excitotoxic damage of brain tissue and subsequent behavioral impairment ([10]; rats): reduced excitotoxic damage of brain tissue and subsequent behavioral impairment; psychotomimetic symptoms (hyperlocomotion, sensorimotor gating deficit) [10]: does not induce psychotomimetic symptoms
CC(=O)[C@H]1CC[C@H]2[C@@H]3CC[C@@H]4C[C@H](OS(=O)(=O)O)CC[C@]4(C)[C@H]3CC[C@]12C [PAS, 20-oxo-5β-pregnan-3α-yl sulfate, reference compound]		> 200	> 200									> 200	> 200	24.6 ± 5.3	IC50 [11]: 50 µM; IC50 [12]: 44.4 µM; IC50 [13]: 25.6 µM; IC50 [14]: 30.1 µM
